In PubChem BioAssay AID1919001 (Molecular Pharmacology Branch, DTP, NCI, 2023):
pIC50: −log10 of the molar value. One block for each compound: values may come before it.

Tested on: 699152-130-R-J1-PDC complex spheroid growth
Test: Anticancer human tumor 699152-130-R-J1-PDC patient-derived pancreatic carcinoma cell line growth inhibition [AhR]
Conditions: for pIC50: curve of first compound; for viability, T/C: stronger effect = lower value
Text: Multicellular complex tumor spheroid response to aryl hydrocarbon receptor antagonists in combination with a variety of drugs and investigational agents in selected tumor cell lines
The current study was undertaken to assess response to aryl hydrocarbon receptor antagonists in combination with standard-of-care drugs and investigational agents in solid tumor complex spheroid models. Complex spheroids include a stromal component modeled by human endothelial cells (HUVEC) and fibroblasts modeled by human mesenchymal stem cells (MSCs). The concentration ranges selected for each drug and investigational agent were based upon clinically achievable concentrations if the clinical Cmax of the agent was known.
Compounds. The drugs and investigational agents: BAY 2416964 (NSC825713), GNF351 (NSC835774), CH-223191 (NSC835775), CPI-455 (NSC825282), aza-TdCyd (NSC777586), decitabine (NSC127716), belinostat (NSC758774), entinostat (NSC756642), pevonedistat (NSC761192), tazemetostat (NSC777109), talazoparib (NSC765396), olaparib (NSC753686), selinexor (NSC780203), nedisertib (M3814, NSC802822), bortezomib (NSC756655), venetoclax (NSC766270), doxorubicin (NSC123127), elimusertib (BAY189344, NSC800525), ceralasertib (AZD6738, NSC777638), TAK-243 (NSC785004), alisertib (NSC759677), etoposide (NSC141540), topotecan (NSC609699), eribulin (NSC707389), gemcitabine (NSC613327), carboplatin (NSC241240), cisplatin (NSC119875), and SN-38 (NSC673596) were obtained from the National Cancer Institute (NCI) Developmental Therapeutics Program Chemical Repository (32). The FDA-approved anticancer drug set is available from the Developmental Therapeutics Program at https://dtp.cancer.gov/organization/dscb/obtaining/available plates.htm. […] The stock solutions were prepared in dimethyl sulfoxide (DMSO, Sigma-Aldrich, St. Louis, MO, cat. D2650), except for the platinum compounds which were prepared in saline (Quality Biological, Gaithersburg, MD, cat. 114-055-101), at 800-fold the tested concentration and stored at -70 degrees C prior to their use. All drugs and investigational agents were tested over a range starting from a high concentration at or near the clinical Cmax and decreasing in half-log increments. If the clinical Cmax for an agent had not been determined, the highest concentration tested was 10 microM (Table 1).
Cell Culture. All cells were maintained in an incubator at 37 degrees C and 5% CO2 with 95% humidity. The PDC lines were cultured according to standard operating procedures established by the NCI PDMR (https://pdmr.cancer.gov). Briefly, all PDCs were thawed and cultured in Matrigel-coated flasks prepared with a working solution of 1X Ham's F-12 nutrient mix, without supplementation (Invitrogen, Waltham, MA, cat. 11765054), 100 U/mL penicillin-streptomycin (Invitrogen, cat. 15140122), and 2.5% Matrigel (Corning Inc., Corning, NY, cat. 354248) for the first three passages. All PDCs were cultured in complete DMEM/F-12 media containing advanced DMEM/F-12 (Invitrogen, cat. 12634028), 4.9% defined fetal bovine serum, heat inactivated (HyClone Laboratories Inc., Logan, UT, cat. SH30070.03HI), 389 ng/mL hydrocortisone (Sigma-Aldrich, cat. H4001), 9.7 ng/mL human EGF recombinant protein (Invitrogen, cat. PHG0313), 23.4 microg/mL adenine (Sigma-Aldrich, cat. A2786), 97.3 U/mL penicillin-streptomycin (Invitrogen, cat. 15140122), 1.9 mM L-glutamine (Invitrogen, cat. 25030081), and 9.7 microM Y-27632 dihydrochloride (Tocris Bioscience, Bristol, United Kingdom, cat. 1254). The PDCs were cultured in complete DMEM/F12 media without 10 microM Y-27632 dihydrochloride for at least two passages prior to the screen. The established cell lines NCI-H1341 and […] were cultured in DMEM/F-12, HEPES (Invitrogen, cat. 11330032), 5% defined fetal bovine serum (HyClone Laboratories Inc., cat. SH30070.03), ITS premix universal culture supplement [insulin (5 microg/mL), transferrin (5 microg/mL), and selenious acid (5 ng/mL)] […]

[1] = second compound 0.1 µM, first compound 0.00316 µM
[2] = second compound 0.1 µM, first compound 0.01 µM
[3] = second compound 0.1 µM, first compound 0.0316 µM
[4] = second compound 0.1 µM, first compound 0.1 µM
[5] = second compound 0.1 µM, first compound 0.316 µM
[6] = second compound 0.1 µM, first compound 1 µM
[7] = second compound 0.316 µM, first compound 0.00316 µM
[8] = second compound 0.316 µM, first compound 0.01 µM
[9] = second compound 0.316 µM, first compound 0.0316 µM
[10] = second compound 0.316 µM, first compound 0.1 µM
[11] = second compound 0.316 µM, first compound 0.316 µM
[12] = second compound 0.316 µM, first compound 1 µM
[13] = second compound 1 µM, first compound 0.00316 µM
[14] = second compound 1 µM, first compound 0.01 µM
[15] = second compound 1 µM, first compound 0.0316 µM
[16] = second compound 1 µM, first compound 0.1 µM
[17] = second compound 1 µM, first compound 0.316 µM
[18] = second compound 1 µM, first compound 1 µM
[19] = second compound 3.16 µM, first compound 0.00316 µM
[20] = second compound 3.16 µM, first compound 0.01 µM
[21] = second compound 3.16 µM, first compound 0.0316 µM
[22] = second compound 3.16 µM, first compound 0.1 µM
[23] = second compound 3.16 µM, first compound 0.316 µM
[24] = second compound 3.16 µM, first compound 1 µM
[25] = second compound 10 µM, first compound 0.00316 µM
[26] = second compound 10 µM, first compound 0.01 µM
[27] = second compound 10 µM, first compound 0.0316 µM
[28] = second compound 10 µM, first compound 0.1 µM
[29] = second compound 10 µM, first compound 0.316 µM
[30] = second compound 10 µM, first compound 1 µM
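Also: compound exposure lasted 7 days after spheroids had grown for 3 days.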

pIC50 (second compound 0.1 µM): < 6.00 | pIC50 (second compound 0.316 µM): < 6.00 | pIC50 (second compound 1 µM): < 6.00 | pIC50 (second compound 3.16 µM): < 6.00 | pIC50 (second compound 10 µM): > 8.50
SMILES: Nc1ncn(C2CC(O)C(CO)O2)c(=O)n1 (stereo not given) + Cc1cncc(-c2nc(NCCc3c[nH]c4ccccc34)c3ncn(C(C)C)c3n2)c1
viability, T/C [1]: 109% | viability, T/C [2]: 88% | viability, T/C [3]: 90.4% | viability, T/C [4]: 98.4% | viability, T/C [5]: 85.4% | viability, T/C [6]: 87.8% | viability, T/C [7]: 99.3% | viability, T/C [8]: 90.8% | viability, T/C [9]: 104% | viability, T/C [10]: 86.5% | viability, T/C [11]: 96.3% | viability, T/C [12]: 97.2% | viability, T/C [13]: 106% | viability, T/C [14]: 115% | viability, T/C [15]: 99.6% | viability, T/C [16]: 97.9% | viability, T/C [17]: 110% | viability, T/C [18]: 92.2% | viability, T/C [19]: 95% | viability, T/C [20]: 87.1% | viability, T/C [21]: 111% | viability, T/C [22]: 100% | viability, T/C [23]: 97.6% | viability, T/C [24]: 93.9% | viability, T/C [25]: 0.96% | viability, T/C [26]: 2.37% | viability, T/C [27]: 0.78% | viability, T/C [28]: 0.82% | viability, T/C [29]: 1.11% | viability, T/C [30]: 5.98%

pIC50 (second compound 0.1 µM): < 6.00 | pIC50 (second compound 0.316 µM): < 6.00 | pIC50 (second compound 1 µM): < 6.00 | pIC50 (second compound 3.16 µM): < 6.00 | pIC50 (second compound 10 µM): < 6.00
SMILES: CC1COCCN1c1cc(-c2ccnn2C)c2ccnc(-c3ccn[nH]3)c2n1 (stereo not given) + CC(CO)NC(=O)c1cc(-c2ccc(Cl)cc2)nn(-c2cnn(C)c2)c1=O
viability, T/C [1]: 105% | viability, T/C [2]: 112% | viability, T/C [3]: 112% | viability, T/C [4]: 94.2% | viability, T/C [5]: 86.8% | viability, T/C [6]: 63.3% | viability, T/C [7]: 102% | viability, T/C [8]: 100% | viability, T/C [9]: 110% | viability, T/C [10]: 92.1% | viability, T/C [11]: 77.7% | viability, T/C [12]: 59.1% | viability, T/C [13]: 102% | viability, T/C [14]: 101% | viability, T/C [15]: 105% | viability, T/C [16]: 87.5% | viability, T/C [17]: 72.3% | viability, T/C [18]: 58.3% | viability, T/C [19]: 85.8% | viability, T/C [20]: 105% | viability, T/C [21]: 84.6% | viability, T/C [22]: 80.1% | viability, T/C [23]: 74% | viability, T/C [24]: 65% | viability, T/C [25]: 97.7% | viability, T/C [26]: 82.7% | viability, T/C [27]: 81.5% | viability, T/C [28]: 73.9% | viability, T/C [29]: 64.6% | viability, T/C [30]: 58.1%

pIC50 (second compound 0.1 µM): < 5.52 | pIC50 (second compound 0.316 µM): < 5.52 | pIC50 (second compound 1 µM): < 5.52 | pIC50 (second compound 3.16 µM): < 5.52 | pIC50 (second compound 10 µM): < 5.52
SMILES: CCN(c1cc(-c2ccc(CN3CCOCC3)cc2)cc(C(=O)NCc2c(C)cc(C)[nH]c2=O)c1C)C1CCOCC1 + Cc1ccccc1N=Nc1ccc(NC(=O)c2ccnn2C)c(C)c1
viability, T/C (second compound 0.1 µM, first compound 0.00949 µM): 111% | viability, T/C (second compound 0.1 µM, first compound 0.03 µM): 113% | viability, T/C (second compound 0.1 µM, first compound 0.0949 µM): 108% | viability, T/C (second compound 0.1 µM, first compound 0.3 µM): 104% | viability, T/C (second compound 0.1 µM, first compound 0.949 µM): 109% | viability, T/C (second compound 0.1 µM, first compound 3 µM): 104% | viability, T/C (second compound 0.316 µM, first compound 0.00949 µM): 91.2% | viability, T/C (second compound 0.316 µM, first compound 0.03 µM): 95.6% | viability, T/C (second compound 0.316 µM, first compound 0.0949 µM): 102% | viability, T/C (second compound 0.316 µM, first compound 0.3 µM): 105% | viability, T/C (second compound 0.316 µM, first compound 0.949 µM): 109% | viability, T/C (second compound 0.316 µM, first compound 3 µM): 114% | viability, T/C (second compound 1 µM, first compound 0.00949 µM): 118% | viability, T/C (second compound 1 µM, first compound 0.03 µM): 105% | viability, T/C (second compound 1 µM, first compound 0.0949 µM): 109% | viability, T/C (second compound 1 µM, first compound 0.3 µM): 109% | viability, T/C (second compound 1 µM, first compound 0.949 µM): 90.8% | viability, T/C (second compound 1 µM, first compound 3 µM): 118% | viability, T/C (second compound 3.16 µM, first compound 0.00949 µM): 97.1% | viability, T/C (second compound 3.16 µM, first compound 0.03 µM): 104% | viability, T/C (second compound 3.16 µM, first compound 0.0949 µM): 108% | viability, T/C (second compound 3.16 µM, first compound 0.3 µM): 98.7% | viability, T/C (second compound 3.16 µM, first compound 0.949 µM): 99.7% | viability, T/C (second compound 3.16 µM, first compound 3 µM): 101% | viability, T/C (second compound 10 µM, first compound 0.00949 µM): 113% | viability, T/C (second compound 10 µM, first compound 0.03 µM): 113% | viability, T/C (second compound 10 µM, first compound 0.0949 µM): 118% | viability, T/C (second compound 10 µM, first compound 0.3 µM): 124% | viability, T/C (second compound 10 µM, first compound 0.949 µM): 127% | viability, T/C (second compound 10 µM, first compound 3 µM): 113%
